From patent publication US20230293629A1, “METHODS FOR ATTENUATING RELEASE OF INFLAMMATORY MEDIATORS AND PEPTIDES USEFUL THEREIN” (BIOMARCK PHARMACEUTICALS LTD., priority 2006, published 2023)
Where a SMILES comes first, the peptide text is derived from it. The star is where a group is joined. Myristoyl = CCCCCCCCCCCCCC(=O)*

Test system: isolated canine neutrophils
Test: MPO secretion from isolated canine neutrophils stimulated with PMA + 8-Br-cGMP (FIG. 6, 10, 11)
Format: cell-based
Conditions: for MPO secretion: FIG. 6, 100 nM PMA and 10 μM 8-Br-cGMP
Description: The invention also relates to a new method for blocking any cellular exocytotic secretory process, especially those releasing inflammatory mediators from granules contained within inflammatory cells, whose stimulatory pathways involve the protein kinase C (PKC) substrate MARCKS protein and release of contents from membrane-bound vesicles. Specifically, the inventors have shown that stimulated release of the inflammatory mediator myloperoxidase from human (FIG. 6) or canine (FIG. 7) neutrophils can be blocked in a concentration-dependent manner by the MANS peptide. […] 10 or 100 μM of a control peptide (RNS) has no effect on MPO secretion. In FIG. 7, isolated neutrophils were stimulated to secrete myloperoxidase (MPO) with 100 nM PMA and 10 μM 8-Br-cGMP. […] 10 or 100 μM of a control peptide (RNS) has no effect on MPO secretion. Thus, the peptide may be used therapeutically to block the release of mediators of inflammation secreted from infiltrating inflammatory cells in any tissues. Many of these released mediators are responsible for the extensive tissue damage observed in a variety of chronic inflammatory diseases (i.e., respiratory diseases such as asthma, chronic bronchitis and COPD, inflammatory bowel diseases including ulcerative colitis and Crohn's disease, autoimmune diseases, skin diseases such as rosacea, eczema; and severe acne, arthritic and pain syndromes such as rheumatoid arthritis and fibromyalgia). This invention may be useful for treating diseases such as arthritis, chronic bronchitis, COPD and cystic fibrosis. This invention is accordingly useful for the treatment in both human and animal diseases, especially those affecting equines, canines, felines, and other household pets.
FIGS. 8-12 show MPO secretion for both humans and canines. In all of these experiments, isolated neutrophils were stimulated with LPS at a concentration of 1×10^−6 M for 10 minutes at 37° C. prior to adding the stimuli as indicated in the figures. The LPS primes the cells so they can respond to a secretagogue.
Isolation of PMNs from canine blood—The steps involved in isolating PMN include collecting 10 ml ACD anticoagulated blood. Then layering 5 ml on 3.5 ml PMN isolation media while ensuring that the PMN isolation media (IM) was at room temperature (RI). Next, the blood was centrifuged at room temperature for 30′, 550×g at 1700 RPMs. The low lower white band was transferred into 15 ml conical centrifuge tube (CCFT). Next, 2V HESS with 10% fetal bovine serum […] was added and centrifuged at room temperature for 10′, 400×g at 1400 RPMs. The pellet was then resuspended in 5 ml 1-1ESS with PBS. The cell suspension was added to 50 ml CCFT containing 20 ml of ice cold 0.88% NH4Cl and inverted two to three times. The resulting product was centrifuged for 10′, 800×g at 2000 RPMs, then aspirated and resuspended in 5 ml HBSS with FBS. The prep was examined by counting and cytospin and preferably for whole blood, the cell number should be between 10^9-10^11 cells and for PMNs, cell number should be between 2-4×10^7 cells. See generally, Wang et al., J. Immunol., “Neutrophil-induced changes in the biomechanical properties of endothelial cells: roles of ICAM-1 and reactive oxygen species,” 6487-94 (2000).
MPO Colorimetric Enzyme Assay—Samples were assayed for MPO activity in 96 well round bottom microtiter plates using a sandwich ELISA kit (R & D Systems, Minneapolis, Minn.). […]

## CCCCCCCCCCCCCC(=O)NCC(=O)N[C@@H](C)C(=O)N[C@@H](CCC(N)=O)C(=O)N[C@@H](Cc1ccccc1)C(=O)N[C@@H](CO)C(=O)N[C@@H](CCCCN)C(=O)N[C@H](C(=O)N[C@@H](C)C(=O)N[C@@H](C)C(=O)N[C@@H](CCCCN)C(=O)NCC(=O)N[C@@H](CCC(=O)O)C(=O)N[C@@H](C)C(=O)N[C@@H](C)C(=O)N[C@@H](C)C(=O)N[C@@H](CCC(=O)O)C(=O)N[C@@H](CCCNC(=N)N)C(=O)N1CCC[C@H]1C(=O)NCC(=O)N[C@@H](CCC(=O)O)C(=O)N[C@@H](C)C(=O)N[C@@H](C)C(=O)N[C@H](C(=O)N[C@@H](C)C(=O)O)C(C)C)[C@@H](C)O [MANS] (Myristoyl-GAQFSKTAAKGEAAAERPGEAAVA-OH; C-terminus assumed)
10 μM peptide
  MPO secretion: slight decrease
100 (unit not given) peptide
  MPO secretion: decreased secretion of MPO to control levels

## CCCCCCCCCCCCCC(=O)O[C@@H]1[C@@H](C)[C@@]2(O)[C@@H](C=C(CO)C[C@]3(O)C(=O)C(C)=C[C@@H]23)[C@@H]2C(C)(C)[C@]12OC(C)=O [PMA, phorbol 12-myristate 13-acetate]
FIG. 10, PMA alone, enhanced concentration-dependently by co-stimulation with 8-Br-cGMP
  MPO secretion from LPS-stimulated canine neutrophils: small increase

## CCCCCCCCCCCCCC(=O)NCC(=O)N[C@H](C(=O)N[C@@H](C)C(=O)N1CCC[C@H]1C(=O)N[C@@H](C)C(=O)N[C@@H](C)C(=O)N[C@@H](CCC(=O)O)C(=O)NCC(=O)N[C@@H](C)C(=O)NCC(=O)N[C@@H](C)C(=O)N[C@@H](CCC(=O)O)C(=O)N[C@H](C(=O)N[C@@H](CCCCN)C(=O)N[C@@H](CCCNC(=N)N)C(=O)N[C@@H](C)C(=O)N[C@@H](CO)C(=O)N[C@@H](C)C(=O)N[C@@H](CCC(=O)O)C(=O)N[C@@H](C)C(=O)N[C@@H](CCCCN)C(=O)N[C@@H](CCC(N)=O)C(=O)N[C@@H](C)C(=O)N[C@@H](Cc1ccccc1)C(=O)O)C(C)C)[C@@H](C)O [RNS, reference compound] (Myristoyl-GTAPAAEGAGAEVKRASAEAKQAF-OH; C-terminus assumed)
10 or 100 μM peptide
  MPO secretion: no effect
